Laboratory results reported in patent publication US8920851B2, “Treatment of neurodegenerative diseases” (Velacor Therapeutics Pty Ltd, priority 2006, dated 2014).
Entries after “also recorded” stand apart in the source; their conditions may differ.

What was measured:
PP2A A-C dimer = target: T1, PP2A A-C dimer (Homo sapiens, UniProt P67775); experiment: Phosphopeptide / malachite green assay with purified PP2A; assay type: biochemical
T1 construct: purified PP2A A-C dimer purified from human red blood cells; purchased Upstate 14-111 (lot #28002); host or cells: human red blood cells (native purification)
T1 sequence (P67775 whole entry): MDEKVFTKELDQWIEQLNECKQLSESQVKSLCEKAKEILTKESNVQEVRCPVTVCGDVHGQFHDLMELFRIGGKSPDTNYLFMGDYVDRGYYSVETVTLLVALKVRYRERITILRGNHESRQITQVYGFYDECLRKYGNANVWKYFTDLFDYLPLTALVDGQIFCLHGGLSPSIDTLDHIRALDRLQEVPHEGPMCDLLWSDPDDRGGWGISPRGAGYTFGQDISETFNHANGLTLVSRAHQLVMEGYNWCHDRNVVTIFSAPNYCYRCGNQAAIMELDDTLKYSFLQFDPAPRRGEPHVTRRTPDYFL
T1 sequence (P30153 2-589 partner limits assumed): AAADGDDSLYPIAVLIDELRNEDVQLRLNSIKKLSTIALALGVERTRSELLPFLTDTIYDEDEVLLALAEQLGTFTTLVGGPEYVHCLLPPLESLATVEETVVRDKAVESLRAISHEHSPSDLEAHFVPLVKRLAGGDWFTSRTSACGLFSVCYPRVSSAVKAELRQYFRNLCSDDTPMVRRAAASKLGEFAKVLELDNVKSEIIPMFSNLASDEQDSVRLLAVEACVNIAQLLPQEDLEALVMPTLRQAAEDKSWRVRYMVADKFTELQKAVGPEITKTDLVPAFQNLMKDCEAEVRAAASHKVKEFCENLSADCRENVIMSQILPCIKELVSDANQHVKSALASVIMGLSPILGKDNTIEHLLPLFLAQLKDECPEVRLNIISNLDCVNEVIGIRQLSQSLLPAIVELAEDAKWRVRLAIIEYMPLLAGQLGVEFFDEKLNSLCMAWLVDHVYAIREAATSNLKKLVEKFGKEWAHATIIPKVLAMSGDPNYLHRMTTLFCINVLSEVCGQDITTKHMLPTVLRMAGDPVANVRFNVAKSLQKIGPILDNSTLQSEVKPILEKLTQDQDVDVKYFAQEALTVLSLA
Procedure: The amount of inorganic phosphate released by enzymatic activity was determined by the addition of malachite green, and absorbance read at 590 nm. Malachite green forms a stable green complex in the presence of molybdate and orthophosphate, allowing the concentration of inorganic phosphate present to be measured. Data is presented as mean absorbance at 590 nm from at least three independent experiments, ±SEM.
1 mg of synthetic phosphopeptides K-R-pT-I-R-R (Upstate #12-219) and R-R-A-pS-V-A (Upstate #12-220) were dissolved in 1.10-1.285 ml of dH2O to prepare a 1 mM solution, then aliquoted and stored at −20° C. until use. 0.01-0.05 U of purified PP2A A-C dimer purified from human red blood cells, or 0.05 U of rabbit PP1 purified from skeletal muscle was mixed with 500 μM of phosphopeptide and incubated in the presence of various treatments as indicated at 37° C. on a heating block for 15 min. Each reaction was made up to a total volume of 25 μl with pNPP buffer (50 mM Tris-HCl, pH 7.0, 100 μM CaCl2). The enzyme reaction was terminated by adding 100 μl of malachite green solution (0.034% malachite green in 10 mM ammonium molybdate, 1 N HCl, 3.4% ethanol, 0.01% Tween-20). Malachite green forms a stable green complex in the presence of molybdate and orthophosphate, allowing the amount of inorganic phosphate present to be measured. Absorbance was read in duplicate for each sample at 590 nm.

GSK-3β = GSK-3β Ser9 phosphorylation by immunoblot in PC3 cells; assay type: cell-based, human
Source text: The metabolic effects of insulin on glycogen synthesis are mediated by glycogen synthase kinase-3 (GSK-3), a direct downstream substrate of Akt. GSK-3 is a ubiquitously expressed serine/threonine kinase that phosphorylates and inactivates glycogen synthase. In response to activation of the insulin receptor, Akt phosphorylates and inactivates the repressor GSK-3, thereby stimulating glycogen synthesis [Cross et al., 1995]. […] Resolved whole cell lysates were subjected to immunoblot analysis with an antibody that specifically recognizes GSK-3β only when phosphorylated at Ser9, a site critical for its kinase activity, and comparison made with the cytoskeletal protein β-tubulin as a loading control.

PHF-Tau = conditions: 100 μM, 3 hours
Procedure: In Vitro: 2×10^5 SY5Y or BE2M17 cells were plated to each well in a Falcon 6-well plate, either over coated or uncoated surfaces, and were allowed to attached overnight at 5% CO2/37° C. in complete growth medium (as described above). […] Cells were cultured over Falcon 6-well plates with surfaces coated either with 0.1% gelatin (Sigma, St Louis, Mo., USA), matrigel (cat #354234, BD, NSW, Australia) or 0.5 μg/ml fibronectin (Sigma, St Louis, Mo., USA).
Lysates preparation and Immunoblotting: Cells were washed twice in cold PBS and were lysed in 150 μl of cold RIPA buffer (containing 10% glycerol, 20 mM Tris, 137 mM NaCl, 0.1% SDS, 0.05% IGEPAL, 1% Triton X-100, 2 mM EDTA, 10% NaV, 2% NaF and 4× protease inhibitor), similarly, brain tissues were homogenised in dry ice using mortar and pestle, and lysed in 150 μl RIPA buffer. Samples were incubated on ice for 30 minutes, followed by centrifugation at 13000 rpm/ 10 minutes/ 4° C. Supernantant was collected and protein estimation was calculated for each sample by using BCA reagent (Sigma). Equal amounts of protein were loaded into each lane of a 10% SDS-polyacrylamide gel. The proteins were transferred onto PVDF (Millipore) membranes and were blocked with 5% skim milk blotto for 2 hours. After blocking the membrane, primary antibodies: either anti-human PHF-Tau (AT100 at 1:200, AT180 at 1:1000, and AT270 at 1:2500) or anti-human Tau (HT-7 at 1:1000) were incubated overnight at 4° C. in 5% skim milk blotto. Prior to secondary antibody incubation, membranes were rinsed 3× followed by 3×5 minutes washed in Tris-Buffered Saline with 0.01% Tween at room temperature. Followed by 1 hour incubation of secondary antibody polyclonal goat anti-mouse (Dako, Denmark) coupled to horse radish peroxidase (HRP) at 1:10000 dilutions in 5% skim milk blotto/room temperature. Membranes were washed as described above and were detected by using Amersham ECL western blotting detection reagent (Amersham Bioscience, Buckinghamshire, UK). Membranes were stripped using 2% SDS/β-Mercaptoethanol stripping buffer and reprobed for tubulin (Promega) to confirm protein loading.

[1] = target: T2, purified human PP2A A-C dimer (Homo sapiens, UniProt P67775); experiment: Free sulfhydryl groups in purified PP2A (Ellman's assay); assay type: biochemical; conditions: 15 min at 37° C.
T2 construct: purified PP2A A-C dimer purified from human red blood cells; purchased Upstate 14-111 (lot #28002); host or cells: human red blood cells (native purification)
T2 sequence (P67775 whole entry): as the sequence (P67775 whole entry) above
T2 sequence (P30153 2-589 partner limits assumed): as the sequence (P30153 2-589 partner limits assumed) above
Source text: Inactivating reversible oxidation of protein phosphatases involves the modification of a critical cysteine residue within the catalytic domain, ultimately leading to the formation of either intramolecular disulphide or sulphenyl-amide bonds. […] Ellman's reagent (5,5′-Dithio-bis(2-nitrobenzoic acid), DTNB) rapidly forms a disulphide bond with free sulfhydryl groups with the release of chromogenic thiolate ions. […] The quantity of free sulfhydryl groups present within the phosphatase was then determined by the addition of Ellman's reagent and subsequent measurement of absorbance at 412 nm (FIG. 5C).
The change in free sulfhydryl groups in purified PP2A following various treatments was determined using Ellman's Reagent. To 0.01 U of PP2A was added to 37.5 μl of dilution buffer (30 mM Tris-HCl, 3 mM EDTA, pH 8.2), 12.5 μl DTNB reagent (Ellman's reagent) and 200 μl of methanol. Samples were incubated for 5 min at RT, and then extinction measured in duplicate for each at 412 nm.

[2] = tested on: TAU441 transgenic (Tg) TMHT mice
Source text: This was done every Monday, Wednesday and Friday, and the water was weighed on exchange to measure consumption.

[3] = target: T3, PP2A catalytic subunit complexed with Akt (Homo sapiens, UniProt P67775); experiment: Co-immunoprecipitation of PP2A catalytic subunit with Akt from PC3 cells; assay type: cell-based; conditions: 500 μM, 1.5 h, densitometry
T3 construct: Total Akt was immunoprecipitated from 400 μg of each whole cell lysate using a monoclonal anti-Akt antibody; endogenous in cells; host or cells: PC3 prostate carcinoma cells
T3 sequence (P67775 whole entry): as the sequence (P67775 whole entry) above
T3 sequence (P30153 2-589 partner limits assumed): as the sequence (P30153 2-589 partner limits assumed) above
Procedure: 1×10^6 PC3 prostate carcinoma cells were plated onto 6 cm dishes, allowed attach for 8 h, and then serum starved overnight. […] Total Akt was immunoprecipitated from 400 μg of each whole cell lysate using a monoclonal anti-Akt antibody, and captured with protein A-sepharose beads. […] Following washing to reduce non-specific binding, the beads were boiled for 5 min in 3× SDS protein loading buffer, centrifuged at high speed and the supernatant resolved by SDS-PAGE. The level of PP2A binding was determined by immunoblot analysis with an antibody that specifically recognizes the catalytic subunit of the phosphatase, and comparison made with the amount of Akt pulled down and the concentration of precipitating antibody (IgG). […] To quantify this increase in complex formation, representative immunoblots from three independent experiments were digitalized, subjected to densitometric analysis, and normalized to the control for each experiment. The mean ratio of PP2A catalytic subunit to total immunoprecipitated Akt protein ±SEM was then determined.
100-600 μg of whole cell lysate was incubated with various antibodies at a 1:100 dilution in microfuge tubes on a rotating wheel for 1-2 h at RT or 16 h at 4° C. as indicated. Following brief centrifugation, 30-40 μl of pre-washed 50% Protein-A Sepharose Fast Flow beads (Sigma #9424) was added to each tube and rotated at 4° C. for 1 h at RT or 4° C. […]

[4] = BE2M17 cells on fibronectin, plastic (uncoated) and matrigel

## O=[Se](=O)(O)O [sodium selenate]
PP2A A-C dimer; 50 μM of each selenium compound
  PP2A phosphatase activity, serine phosphopeptide as substrate: clear boost in phosphatase activity
PP2A A-C dimer; 0.01-0.05 U PP2A, 500 μM phosphopeptide, 15 min at 37° C., 50 μM sodium selenate
  inorganic phosphate released from phosphopeptide by PP2A: more than doubled
GSK-3β; 500 μM, 0 to 6 h
  GSK-3β phosphorylation at Ser9, time course: marked reduction in phosphorylation, which was maximal at 1 h and 3 h, and returned towards basal levels at the 6 h timepoint
GSK-3β; densitometry, sodium selenate 500 μM 3 h, LY294002 50 μM 1 h
  reduction of GSK-3β phosphorylation levels: over 20%
PHF-Tau; BE2M17 cells on fibronectin and matrigel
  PHF-Tau signal, clone AT100 (68 kDa): PHF-Tau signal appeared to be reduced
PHF-Tau; BE2M17 cells on fibronectin
  Tau expression, clone HT-7 (68, 64, 57 kDa): appeared to reduce Tau expression
PHF-Tau; [4]
  PHF-Tau signal, clone AT180 (71 and 67 kDa): weaker PHF-Tau signal
  PHF-Tau signal, clone AT270 (66 and 63 kDa): weaker PHF-Tau signal
PHF-Tau; BE2M17 cells on matrigel
  PHF-Tau signal, clone AT270, cells on matrigel: only a slight difference between selenate treated and non-treated cells
PHF-Tau; SY5Y cells on fibronectin
  anti-Tau signal, clone HT-7 (60 kDa): weaker signal for anti-Tau
PHF-Tau; SY5Y cells on gelatin and fibronectin
  PHF-Tau signal, clone AT270 (70 kDa): weaker PHF-Tau signal
[1]; 0.01 U PP2A, 10 mM of each agent
  number of free sulfhydryl groups in PP2A: has no effect
[1]; sodium selenate 10 mM and hydrogen peroxide 10 mM
  hydrogen peroxide mediated modification of PP2A sulfhydryl groups in the presence of sodium selenate: did not protect PP2A from hydrogen peroxide mediated modification of sulfhydryl groups; also recorded: significantly more efficient in the presence of sodium selenate
[2]; 1.2 mg per 100 mL drinking water, 12 weeks
  Open Field activity parameters (activity, hyperactivity, rearing behaviour): uninfluenced
[2]; day 1
  finding the platform in the Morris Water Maze versus three months younger baseline group: faster
[2]; day 1, 2 and 3, p≦0.01
  finding the platform in the Morris Water Maze versus vehicle: faster
[2]; drinking water, 1.5 months after treatment start, versus vehicle, T-test p=0.019
  thigmotaxis: abidance in the centre of the Open Field box, turn 1: significant higher abidance in the centre of the Open Field box
[2]; drinking water, 12 weeks
  curiosity behaviour (Nose poke): remained unchanged
  motor performance (Rota Rod): remained unchanged
  negative side effects and premature deaths: did not lead to any negative side effects or caused any premature deaths
[2]; drinking water, end of treatment
  thigmotactic behaviour, turn 2: normalized to the level of the vehicle controls
[3]
  increase in the binding of PP2A catalytic subunit to Akt protein: approximately 50%
